Test results as given in ChEMBL document CHEMBL3885861, “Open TG-GATES”.

Organism: Rattus norvegicus
Assay: Open TG-GATES - Regimen: Single
Format: toxicity, organism-based, Sprague-Dawley
Design: regimen Single, gender Male, age 6 weeks
Details: in vivo, po, route gavage; for APTT / Bas / Eos / Fbg / Hb / Ht / Lym / MCH / MCHC / MCV / Mono / Neu / PT / Plat / RBC / Ret / WBC: tissue Blood; for KIDNEY_L / KIDNEY_R / KIDNEY_TOTAL: tissue Kidney; for LIVER: tissue Liver; for ALP / ALT / AST / BUN / CRE / Ca / Cl / DBIL / GLC / IP / K / LDH / Na / PL / RALB / TBIL / TC / TG / TP / gamma-GTP: tissue Plasma
[1] = 100 mg/kg, 24 h, dose level Low

`COC(=O)C1=C(C)NC(C)=C(C(=O)OC)C1c1ccccc1[N+](=O)[O-]` [NIFEDIPINE] was tested, and the APTT (100 mg/kg, 9 h, dose level Low) was 15.8 s, the Bas (100 mg/kg, 9 h, dose level Low) was 0% and the Eos (100 mg/kg, 9 h, dose level Low) was 0.6%. For the same compound, the Fbg (100 mg/kg, 9 h, dose level Low) was 292.2 mg/dL, the Hb (100 mg/kg, 9 h, dose level Low) was 12.7 g/dL and the Ht (100 mg/kg, 9 h, dose level Low) was 38.7%. The Lym (100 mg/kg, 9 h, dose level Low) was 80.2%, the MCH (100 mg/kg, 9 h, dose level Low) was 20.8 pg and the MCHC (100 mg/kg, 9 h, dose level Low) was 32.9%. For the same compound, the MCV (100 mg/kg, 9 h, dose level Low) was 63.3 fL, the Mono (100 mg/kg, 9 h, dose level Low) was 2.8% and the Neu (100 mg/kg, 9 h, dose level Low) was 14.8%. For the same compound, the PT (100 mg/kg, 9 h, dose level Low) was 14.6 s, the Plat (100 mg/kg, 9 h, dose level Low) was 127.7 x10_4/uL and the RBC (100 mg/kg, 9 h, dose level Low) was 610.8 x10_4/ul. The Ret (100 mg/kg, 9 h, dose level Low) was 9.7%, the WBC (100 mg/kg, 9 h, dose level Low) was 116.7 x10_2/uL and the KIDNEY_L (100 mg/kg, 9 h, dose level Low) was 0.9 g. It also gave a KIDNEY_R (100 mg/kg, 9 h, dose level Low) of 0.9 g, a KIDNEY_TOTAL (100 mg/kg, 9 h, dose level Low) of 1.7 g and an LIVER (100 mg/kg, 9 h, dose level Low) of 7.4 g. It also gave an ALP (100 mg/kg, 9 h, dose level Low) of 1305.6 IU/L, an ALT (100 mg/kg, 9 h, dose level Low) of 46.4 IU/L and an AST (100 mg/kg, 9 h, dose level Low) of 75.6 IU/L. For the same compound, the BUN (100 mg/kg, 9 h, dose level Low) was 17.8 mg/dL, the CRE (100 mg/kg, 9 h, dose level Low) was 0.2 mg/dL and the Ca (100 mg/kg, 9 h, dose level Low) was 10.9 mg/dL. It also gave a Cl (100 mg/kg, 9 h, dose level Low) of 102 meq/L, a DBIL (100 mg/kg, 9 h, dose level Low) of 0.008 mg/dL and a GLC (100 mg/kg, 9 h, dose level Low) of 178.6 mg/dL. It also gave an IP (100 mg/kg, 9 h, dose level Low) of 10.8 mg/dL, a K (100 mg/kg, 9 h, dose level Low) of 4.6 meq/L and an LDH (100 mg/kg, 9 h, dose level Low) of 76 IU/L. For the same compound, the Na (100 mg/kg, 9 h, dose level Low) was 138.6 meq/L, the PL (100 mg/kg, 9 h, dose level Low) was 152 mg/dL and the RALB (100 mg/kg, 9 h, dose level Low) was 2.6 g/dL. It also gave a TBIL (100 mg/kg, 9 h, dose level Low) of 0.046 mg/dL, a TC (100 mg/kg, 9 h, dose level Low) of 90.6 mg/dL and a TG (100 mg/kg, 9 h, dose level Low) of 28.2 mg/dL. For the same compound, the TP (100 mg/kg, 9 h, dose level Low) was 5.4 g/dL, the gamma-GTP (100 mg/kg, 9 h, dose level Low) was 1.2 IU/L and the TERMINAL_BW [1] was 206.2 g. The APTT [1] was 16.5 s, the Bas [1] was 0% and the Eos [1] was 1%. For the same compound, the Fbg [1] was 267.8 mg/dL, the Hb [1] was 13 g/dL and the Ht [1] was 40.5%. For the same compound, the Lym [1] was 65.6%, the MCH [1] was 20.8 pg and the MCHC [1] was 32.2%. The MCV [1] was 64.5 fL, the Mono [1] was 3.8% and the Neu [1] was 29%. It also gave a PT [1] of 13.9 s, a Plat [1] of 133.1 x10_4/uL and an RBC [1] of 629 x10_4/ul. It also gave a Ret [1] of 8.8%, a WBC [1] of 87.9 x10_2/uL and a KIDNEY_L [1] of 0.9 g. The KIDNEY_R [1] was 0.9 g, the KIDNEY_TOTAL [1] was 1.8 g and the LIVER [1] was 9.3 g. For the same compound, the ALP [1] was 2046.4 IU/L, the ALT [1] was 44.4 IU/L and the AST [1] was 70.8 IU/L. For the same compound, the BUN [1] was 14.6 mg/dL, the CRE [1] was 0.2 mg/dL and the Ca [1] was 10.6 mg/dL. It also gave a Cl [1] of 109.4 meq/L, a DBIL [1] of 0.016 mg/dL and a GLC [1] of 177 mg/dL. The IP [1] was 7.4 mg/dL, the K [1] was 4.4 meq/L and the LDH [1] was 82.6 IU/L. For the same compound, the Na [1] was 146 meq/L, the PL [1] was 132.8 mg/dL and the RALB [1] was 2.6 g/dL. The TBIL [1] was 0.03 mg/dL, the TC [1] was 68.4 mg/dL and the TG [1] was 87.8 mg/dL. For the same compound, the TP [1] was 5.5 g/dL, the gamma-GTP [1] was 1.2 IU/L and the TERMINAL_BW (300 mg/kg, 3 h, dose level Middle) was 203.9 g.
